Measured values from patent US11596716B2, “Compounds and matrices for use in bone growth and repair” (Human BioMolecular Research Institute, priority 2013, dated 2023).

What was measured:
Solubility in water = assay type: physicochemical
[1] = Prodrug hydrolysis in phosphate buffer determined by HPLC; assay type: physicochemical
Description: 3 provided 54 (described in Example 3) through prodrug hydrolysis as determined by HPLC.
Within 5 minutes, the hydrolysis of 3 produced compound 84 (described in Example 3) that is the mono hydrolysis product of the bis(amino acid) pro-drug 3. Within 15 minutes, compound 54 that is the fully hydrolyzed product from 3 (and 84) was prominent in solution. By 77 minutes, most of 3 was hydrolyzed while compound 84 and compound 54 persisted.

[2] = tested on: nude, immunodeficient Bg-Nu-XID female mice; assay: Intramuscular osteoinduction: implants in biceps femoris of immunodeficient mice, histology after 8 weeks; assay type: in vivo
Description: Mice were divided into groups according to the experimental design: i) uninduced hMSCs that were treated with vehicle alone (i.e., 0.1% DMSO, final concentration) for 8 days then combined with TCP ceramic matrix, and ii) induced hMSCs that were treated with 3 (500 nM) in the presence of TCP ceramic matrix (5 mg/mL) for 8 days, and iii) TCP ceramic matrix (i.e. no cells) mock cultured for 8 days. The TCP ceramic matrix used was […] granules. […] MEM medium was added to existing PBS (pH 6.5) cell incubations to effect a 500 nM final concentration.
Isolation of Compound-Induced hMSCs and their Cryopreservation (FIG. 5, Steps 4-5). At the end of an 8-day cell culture period, the cells were washed three times with 1 ml PBS (50 mM, pH 7.4), and removed from the 6-well plate by trypsinization. For induced cells, the TCP granules that remained on the plate were retained. After three washes with PBS (50 mM, pH 7.4), cells were centrifuged at 1200× g for 3 min. The cell pellet was recombined with TCP ceramic taken from cell culture and the mixture was suspended in 1 mL freezing medium (MEM essential containing 20% FBS and 5% DMSO). Before cryopreservation of the cell-TCP mixture in liquid nitrogen, a 10 μl aliquot of each sample was taken and used to count the cells, or to confirm ALP functional activity and mRNA biomarker expression (i.e., Osteocalcin, Collagen I) in advance of implantation.
Preparation of Implants for Surgery (FIG. 5, Steps i and ii). On the day of surgery, implants comprised of either i) TCP ceramic matrix, ii) hMSCs (0.5 million) and 5 mg TCP ceramic matrix, or iii) compound-induced hMSCs (0.5 million) and 5 mg TCP ceramic matrix were prepared for transplantation. Frozen cell/ceramic suspensions were thawed and washed three times with PBS (50 mM, pH 7.4). All implants were combined with a bioadhesive just prior to implantation in mice. […]
Surgical Implantation of Compositions of the Invention (FIG. 5, Step iii). […] Mice were monitored throughout surgery and thereafter for maintenance of the surgical plane of anesthesia. […]

[3] = implants of hMSCs induced 8 days with compound (500 nM) and TCP ceramic matrix, intramuscular, mice, 8 weeks

## CC(C)[C@H](N)C(=O)Oc1ccc(C=CC(=O)C=C(O)C=Cc2ccc(OC(=O)[C@@H](N)C(C)C)cc2)cc1 [Compound 3, (2S,2′S)—O,O′-(3-hydroxy-5-oxohepta-1,3,6-triene-1,7-diyl)bis(4,1-phenylene) bis(2-amino-3-methylbutanoate)]
Solubility in water
  solubility in water: greater than 10 mg/mL
[1]; pH 6.5 PBS
  persistence of compound: ≥ 77 min
  time until compound 54 (fully hydrolyzed product) was prominent in solution: ≤ 15 min
  time until hydrolysis produced compound 84 (mono hydrolysis product): ≤ 5 min
[1]; pH 7.5 buffer, versus pH 6.5 phosphate buffer (10 mM)
  persistence for over an hour in pH 7.5 buffer: not in pH 7.5 buffer
[2]; blinded observers, H&E sections, 8 weeks post-implantation
  osteoid score (0-4), median and 75th percentile, versus non-induced hMSCs on TCP matrix or TCP matrix alone: significantly (p<0.005) higher
[2]; [3]
  osteoid in the ROI relative to implants comprised of TCP alone (densitometry): 2.1 fold
  osteoid in the ROI relative to implants of non-induced hMSCs and TCP ceramic matrix (densitometry): 1.3 fold
